From ChEMBL document CHEMBL2010747, “Synthesis of [12]aneN3-dipeptide conjugates as metal-free DNA nucleases” (Bioorg Med Chem Lett, 2012)
Calls of active or inactive are those of the source. No cut-off for these calls is given here. Peptide text beside a SMILES is read from it. * marks the point of attachment. Fmoc = O=C(OCC1c2ccccc2-c2ccccc21)*

Assays:
Format in all cases: nucleic-acid assay
[1] = test system: Nucleic Acid; experiment: Induction of Escherichia coli pUC18 DNA cleavage assessed as formation of open circular DNA at 200 uM after 48 hrs by agarose gel electrophoresis
[2] = test system: Nucleic Acid; experiment: Displacement of ethidium bromide from calf thymus DNA after 1 min by fluorimetry; details: Bos taurus
[3] = test system: Nucleic Acid; experiment: Induction of Escherichia coli pUC18 DNA cleavage assessed as formation of open circular DNA at 200 uM after 48 hrs by agarose gel electrophoresis in presence of hydroxyl radical scavenger DMSO
[4] = test system: Nucleic Acid; experiment: Induction of Escherichia coli pUC18 DNA cleavage assessed as formation of linear DNA at 50 to 500 uM after 48 hrs by agarose gel electrophoresis
[5] = test system: Nucleic Acid; experiment: Induction of Escherichia coli pUC18 DNA cleavage assessed as formation of open circular DNA at 200 uM from 6 to 48 hrs by agarose gel electrophoresis
[6] = test system: Nucleic Acid; experiment: Induction of Escherichia coli pUC18 DNA cleavage assessed as formation of open circular DNA at 200 uM after 48 hrs by agarose gel electrophoresis in presence of hydroxyl radical scavenger t-BuOH
[7] = test system: Nucleic Acid; experiment: Induction of Escherichia coli pUC18 DNA cleavage assessed as formation of open circular DNA at 200 uM after 48 hrs by agarose gel electrophoresis in presence of […]
[8] = test system: Nucleic Acid; experiment: Induction of Escherichia coli pUC18 DNA cleavage assessed as formation of open circular DNA at 200 uM after 48 hrs by agarose gel electrophoresis in presence of EDTA
[9] = test system: Nucleic Acid; experiment: Induction of Escherichia coli pUC18 DNA cleavage assessed as formation of open circular DNA at 200 uM after 48 hrs by agarose gel electrophoresis in presence of singlet oxygen radical scavenger NaN3
[10] = test system: Nucleic Acid; experiment: Induction of Escherichia coli pUC18 DNA cleavage assessed as formation of linear DNA at 200 uM after 48 hrs by agarose gel electrophoresis

Activity [1] | Kapp [2] | SMILES | other results
inactive |  | COC(=O)[C@H](CO)NC(=O)[C@@H](N)CC(C)C (H-Leu-Ser-OMe) | 
50% | 6.6 ×10⁴ /M | COC(=O)[C@H](Cc1ccccc1)NC(=O)[C@H](CC(C)C)NC(=O)CN1CCCNCCCNCCC1 | 
inactive |  | COC(=O)[C@H](Cc1ccc(O)cc1)NC(=O)[C@@H](N)CC(C)C (H-Leu-Tyr-OMe) | 
inactive |  | COC(=O)[C@H](CCCCNC(=O)OCC1c2ccccc2-c2ccccc21)NC(=O)[C@@H](N)CC(C)C (H-Leu-Lys(Fmoc)-OMe) | 
inactive |  | COC(=O)CNC(=O)CN | 
inactive |  | COC(=O)[C@H](Cc1ccccc1)NC(=O)[C@@H](N)CC(C)C (H-Leu-Phe-OMe) | 
50% | 4.7 ×10⁴ /M | COC(=O)[C@H](Cc1c[nH]c2ccccc12)NC(=O)[C@H](CC(C)C)NC(=O)CN1CCCNCCCNCCC1 | 
50% | 7.2 ×10⁴ /M | COC(=O)[C@H](CO)NC(=O)[C@H](CC(C)C)NC(=O)CN1CCCNCCCNCCC1 | 
inactive |  | COC(=O)[C@H](Cc1c[nH]c2ccccc12)NC(=O)[C@@H](N)CC(C)C | 
50% | 4.2 ×10⁴ /M | COC(=O)CNC(=O)CNC(=O)CN1CCCNCCCNCCC1 | 
50% | 5.9 ×10⁴ /M | COC(=O)[C@H](C)NC(=O)[C@H](CC(C)C)NC(=O)CN1CCCNCCCNCCC1 | Activity [3]: Active; Activity [4]: Active; Activity [5]: Active; Activity [6]: Active; Activity [7]: Active; Activity [8]: Active; Activity [9]: Active; Activity [10]: inactive
50% | 7.1 ×10⁴ /M | COC(=O)[C@H](CCCCN)NC(=O)[C@H](CC(C)C)NC(=O)CN1CCCNCCCNCCC1 | Activity [3]: Active; Activity [4]: Active; Activity [5]: Active; Activity [6]: Active; Activity [7]: Active; Activity [8]: Active; Activity [9]: Active
50% | 6.4 ×10⁴ /M | COC(=O)[C@H](Cc1ccc(O)cc1)NC(=O)[C@H](CC(C)C)NC(=O)CN1CCCNCCCNCCC1 | 
inactive |  | COC(=O)CNC(=O)[C@@H](N)CC(C)C (H-Leu-Gly-OMe) | 
50% | 4 ×10⁴ /M | COC(=O)CNC(=O)[C@H](CC(C)C)NC(=O)CN1CCCNCCCNCCC1 | 
inactive |  | COC(=O)[C@H](C)NC(=O)[C@@H](N)CC(C)C (H-Leu-Ala-OMe) | 
